# Results reported in patent US20040121965A1, “Method of treating resistant tumors” (Wyeth Holdings Corporation, priority 2002, published 2004).
# Where two headings read alike, the source gives them in different places.
# What was measured:
# [1] = tested on: KB-3-1; assay: Cell survival assay (SRB), KB-3-1; assay type: cell-based, human; conditions: Homo sapiens
# How it was run: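 IC50 for 50% growth inhibition after 3-day compound exposure, tested in duplicate. SRB protein staining of TCA-fixed cells (10% TCA, 1 hr, 4 °C), solubilised in Tris base and read by absorbance, was used as the survival read-out, with KB-3-1 grown in 20% FCS.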
# [2] = tested on: KB-8-5 (MDR1+); assay: Cell survival assay (SRB), KB-8-5 (MDR1+); conditions: for IC50: Homo sapiens, MDR1, read-out: In vitro IC50 (nM) KB85
# [3] = tested on: KB-V1 (MDR1++); assay: Cell survival assay (SRB), KB-V1 (MDR1++); conditions: for IC50: Homo sapiens
# [4] = KB 3-1, KB-3-1 cells (paclitaxel-sensitive parent), read-out: In vitro IC50 (nM) KB-3-1
# [5] = read-out: In vitro IC50 (nM) KBV1
compound,measurement,setting,value
"CCOC(=O)/C(C)=C/[C@H](C(C)C)N(C)C(=O)[C@@H](NC(=O)[C@H](NC)C(C)(C)c1ccccc1)C(C)(C)C [Example 135, Ethyl (E,4S)-4-[((2S)-3,3-dimethyl-2-{[(2R)-3-methyl-2-(methylamino)-3-phenylbutanoyl]amino}butanoyl)(methyl)amino]-2,5-dimethyl-2-hexenoate]",IC50,[1]; [4],909 nM
same,Ratio KB85/KB,[2],2.3
same,IC50,[2],2090 nM
same,Ratio KBV1/KB,[3],2.9
same,IC50,[3]; [5],2640 nM
"CN[C@@H](C(=O)N[C@H](C(=O)N(C)[C@H](/C=C(\C)C(=O)O)C(C)C)C(C)(C)C)C(C)(C)c1ccc(/C=C/c2ccccc2)cc1 [Example 147, N,β,β-trimethyl4-[(E)-2-phenylvinyl]-D-phenylalanyl-N^1-[(1S,2E)-3-carboxy-1-isopropylbut-2-enyl]-N^1,3-dimethyl-L-valinamide]",IC50,[1]; [4],11.6 nM
same,Ratio KB85/KB,[2],1.7
same,IC50,[2],20 nM
same,Ratio KBV1/KB,[3],53.4
same,IC50,[3]; [5],620 nM
"CN[C@H](C(=O)N[C@H](C(=O)N(C)[C@H](/C=C(\C)C(=O)O)C(C)C)C(C)(C)C)C(C)(C)c1ccccc1C [Example 35, N,β,β,2-Tetramethyl-L-phenylalanyl-N^1-[(1S,2E)-3-carboxy-1-isopropyl-2-butenyl]-N^1,3-dimethyl-L-valinamide]",IC50,[1]; [4],0.912 nM
same,Ratio KB85/KB,[2],2.0
same,IC50,[2],1.8 nM
same,Ratio KBV1/KB,[3],61.6
same,IC50,[3]; [5],56.2 nM
"CN[C@H](C(=O)N[C@H](C(=O)N(C)[C@H](/C=C(/C)C(=O)O)C(C)C)C(C)(C)C)C(C)(C)c1ccccc1 [Example 117, N,β,β-trimethyl-L-phenylalanyl-N^1-[(1S,2Z)-3-carboxy-1-isopropyl-2-butenyl]-N^1,3-dimethyl-L-valinamide]",IC50,"[1]; KB 3-1, read-out: In vitro IC50 (nM) KB-3-1",28 nM
same,Ratio KB85/KB,[2],2.1
same,IC50,[2],58 nM
same,Ratio KBV1/KB,[3],93.9
same,IC50,[3]; [5],2630 nM
"CNC(C(=O)NC(C(=O)N(C)C(C=C(C)C(=O)O)CC(C)C)C(C)(C)C)C(C)(C)c1ccccc1.O=C(O)C(F)(F)F (stereo not drawn) [Example 104, 4-{[3,3-Dimethyl-2-(3-methyl-2-methylamino-3-phenyl-butyrylamino)-butyryl]-methyl-amino}-2,6-dimethyl-hept-2-enoic Acid Trifluoroacetic Acid]",IC50,[1]; [4],27.7 nM
same,Ratio KB85/KB,[2],1.8
same,IC50,[2],50.5 nM
same,Ratio KBV1/KB,[3],79.3
same,IC50,[3]; [5],2200 nM
"CN[C@@H](C(=O)N[C@H](C(=O)N(C)[C@H](/C=C(\C)C(=O)O)C(C)C)C(C)(C)C)C(C)(C)c1ccccc1C [Example 36, N,β,β,2-Tetramethyl-D-phenylalanyl-N^1-[(1S,2E)-3-carboxy-1-isopropyl-2-butenyl]-N^1,3-dimethyl-L-valinamide]",IC50,[1]; [4],6 nM
same,Ratio KB85/KB,[2],2.3
same,IC50,[2],13.8 nM
same,Ratio KBV1/KB,[3],83.5
same,IC50,[3]; [5],501 nM
"CNC(C(=O)N[C@H](C(=O)N(C)[C@H](/C=C(\C)C(=O)O)C(C)C)C(C)(C)C)C1(c2ccccc2)CC1 (stereo in doubt) [Example 142, (2E,4S)-2,5-dimethyl-4-(methyl{3-methyl-N-[(2S)-2-(methylamino)-2-(1-phenylcyclopropyl)acetyl]-L-valyl}amino)hex-2-enoic Acid]",IC50,[1]; [4],227 nM
same,Ratio KB85/KB,[2],2.2
same,IC50,[2],513 nM
same,Ratio KBV1/KB,[3],13.2
same,IC50,[3]; [5],> 3000 nM
"CN[C@H](C(=O)N[C@H](C(=O)N(C)[C@H](/C=C(\C)C(=O)O)C(C)C)C(C)(C)C)C(C)(C)c1cc(C(F)(F)F)cc(C(F)(F)F)c1 [Example 66, N,β,β-trimethyl-3,5-bis(trifluoromethyl)-L-phenylalanyl-N^1-[(1S,2E)-3-carboxy-1-isopropylbut-2-enyl]-N^1,3-dimethyl-L-valinamide]",IC50,[1]; [4],17 nM
same,Ratio KB85/KB,[2],1.1
same,IC50,[2],19 nM
same,Ratio KBV1/KB,[3],26.9
same,IC50,[3]; [5],457 nM
"CN[C@H](C(=O)N[C@H](C(=O)N(C)[C@H](/C=C(\C)C(=O)O)C(C)C)C(C)(C)C)C(C)(C)C [Example 140, N,3-dimethyl-L-valyl-N^1-[(1S,2E)-3-carboxy-1-isopropyl-2-butenyl]-N^1,3-dimethyl-L-valinamide]",IC50,[1]; [4],114 nM
same,Ratio KB85/KB,[2],1.6
same,IC50,[2],181 nM
same,Ratio KBV1/KB,[3],26.4
same,IC50,[3]; [5],≥ 3000 nM
"CCCC[C@@H](/C=C(\C)C(=O)O)N(C)C(=O)[C@@H](NC(=O)[C@@H](NC)C(C)(C)c1ccccc1)C(C)(C)C [Example 75, N,β,β-Trimethyl-L-phenylalanyl-N^1-[(1S,2E)-1-butyl-3-carboxybut-2-enyl]-N^1,3-dimethyl-L-valinamide]",IC50,[1]; [4],36 nM
same,Ratio KB85/KB,[2],2.2
same,IC50,[2],78 nM
same,Ratio KBV1/KB,[3],60.0
same,IC50,[3]; [5],2130 nM
"CN[C@@H](C(=O)N[C@H](C(=O)N(C)[C@H](/C=C(\C)C(=O)O)C(C)C)C(C)(C)C)C(C)(C)c1cccc(C)c1 [Example 9, N,β,β,3-Tetramethyl-D-phenylalanyl-N^1-[(1S,2E)-3-carboxy-1-isopropyl-2-butenyl]-N^1,3-dimethyl-L-valinamide]",IC50,[1]; [4],7.9 nM
same,Ratio KB85/KB,[2],2.5
same,IC50,[2],19.9 nM
same,Ratio KBV1/KB,[3],56.5
same,IC50,[3]; [5],447 nM
"CN[C@H](C(=O)N[C@@H](Cc1ccccc1)C(=O)N(C)[C@H](/C=C(\C)C(=O)O)C(C)C)C(C)(C)c1ccccc1 [Example 137, (E,4S)-2,5-dimethyl4-[methyl((2S)-2-{[(2S)-3-methyl-2-(methylamino)-3-phenylbutanoyl]amino}-3-phenylpropanoyl)amino]-2-hexenoic Acid]",IC50,[1]; [4],934 nM
same,Ratio KB85/KB,[2],1.7
same,IC50,[2],1580 nM
same,Ratio KBV1/KB,[3],3.2
same,IC50,[3]; [5],≥ 3000 nM
"CN[C@H](C(=O)N[C@H](C(=O)N(C)[C@H](/C=C(\C)C(=O)O)C(C)C)C(C)(C)C)C(C)(C)c1ccc(C(=O)O)cc1 [Example 45, 4-carboxy-N,β,β-trimethylphenylalanyl-N^1-[(1S,2E)-3-carboxy-1-isopropylbut-2-enyl]-N^1,3-dimethyl-L-valinamide]",IC50,[1]; [4],680 nM
same,Ratio KB85/KB,[2],2.3
same,IC50,[2],1530 nM
same,IC50,[3]; read-out: In vitro IC50 KBV1,> 3000 nM
"CCCCCC(C)(C)[C@H](NC)C(=O)N[C@H](C(=O)N(C)[C@H](/C=C(\C)C(=O)O)C(C)C)C(C)(C)C [Example 50, (2E,4S)-4-[((2S)-2-{[(2S)-3,3-dimethyl-2-(methylamino)octanoyl]amino}-3,3-dimethylbutanoyl)(methyl)amino]-2,5-dimethyl-2-hexenoic acid]",IC50,[1]; [4],8.7 nM
same,Ratio KB85/KB,[2],2.2
same,IC50,[2],19 nM
same,Ratio KBV1/KB,[3],58.9
same,IC50,[3]; [5],513 nM
"CCC(CC)(c1ccccc1)[C@H](NC)C(=O)N[C@H](C(=O)N(C)[C@H](/C=C(\C)C(=O)O)C(C)C)C(C)(C)C [Example 125, β,β-diethyl-N-methyl-L-phenylalanyl-N^1-[(1S,2E)-3-carboxy-1-isopropylbut-2-enyl]-N^1,3-dimethyl-L-valinamide]",IC50,[1]; [4],8.5 nM
same,Ratio KB85/KB,[2],2.1
same,IC50,[2],18 nM
same,Ratio KBV1/KB,[3],56.4
same,IC50,[3]; [5],479 nM
"CN[C@H](C(=O)N[C@H](C(=O)N(C)[C@H](/C=C(\C)C(=O)O)C(C)C)C(C)(C)C)C(C)(C)c1ccc(OC)cc1OC [Example 59, 2-Methoxy-N,O,β,β-tetramethyl-L-tyrosyl-N^1-[(1S,2E)-3-carboxy-1-isopropyl-2-butenyl]-N^1,3-dimethyl-L-valinamide]",IC50,[1]; [4],2.4 nM
same,Ratio KB85/KB,[2],5.5
same,IC50,[2],13.2 nM
same,Ratio KBV1/KB,[3],446.7
same,IC50,[3]; [5],1070 nM
"CCOC(=O)/C(C)=C/[C@H](C(C)C)N(C)C(=O)[C@@H](NC(=O)[C@@H](NC)C(C)(C)c1cc(C)cc(C)c1)C(C)(C)C [Example 16a, N,β,β,3,5-Pentamethyl-L-phenylalanyl-N^1-[(1S,2E)-4-ethoxy-1-isopropyl-3-methyl-4-oxo-2-butenyl]-N^1,3-dimethyl-L-valinamide]",IC50,[1]; [4],15.1 nM
same,Ratio KB85/KB,[2],20.0
same,IC50,[2],302 nM
same,Ratio KBV1/KB,[3],120.5
same,IC50,[3]; [5],1820 nM
"CCOC(=O)/C(C)=C/C(C(C)C)N(C)C(=O)[C@@H](NC(=O)[C@@H](NC)C(C)(C)c1ccccc1)[C@H](C)O (stereo in doubt) [Example 85, N,β,β-trimethyl-L-phenylalanyl-N^1-[(1R,2E)-4-ethoxy-1-isopropyl-3-methyl-4-oxo-2-butenyl]-N^1-methyl-L-allothreoninamide]",IC50,[1]; [4],115 nM
same,Ratio KB85/KB,[2],11.5
same,IC50,[2],1330 nM
same,Ratio KBV1/KB,[3],26.0
same,IC50,[3]; [5],≥ 3000 nM
"CCOC(=O)/C(C)=C/[C@H](C(C)C)N(C)C(=O)[C@@H](NC(=O)[C@@H](NC)C(C)(C)c1cccc(Cl)c1)C(C)(C)C [Example 1a, 3-Chloro-N,β,β-trimethyl-L-phenylalanyl-N^1-[(1S,2E)4-ethoxy-1-isopropyl-3-methyl-4-oxo-2-butenyl]-N^1,3-dimethyl-L-valinamide]",IC50,[1]; [4],562 nM
same,Ratio KB85/KB,[2],3.1
same,IC50,[2],1740 nM
same,Ratio KBV1/KB,[3],5.3
same,IC50,[3]; [5],≥ 3000 nM
"CC/C(=C\[C@H](CC(C)C)N(C)C(=O)[C@@H](NC(=O)[C@@H](NC)C(C)(C)c1ccccc1)C(C)(C)C)C(=O)O [Example 76, N,β,β-Trimethyl-L-phenylalanyl-N^1-[(1S,2E)-3-carboxy-1-isobutyl-2-pentenyl]-N^1,3-dimethyl-L-valinamide]",IC50,[1]; [4],70.8 nM
same,Ratio KB85/KB,[2],2.4
same,IC50,[2],169 nM
same,Ratio KBV1/KB,[3],42.4
same,IC50,[3]; [5],≥ 3000 nM
